# Measured values: patent publication US10604512B2, “3-(1H-indol-2-yl)-1H-indazoles and therapeutic uses thereof” (Samumed, LLC, priority 2015, dated 2020)
# Test system: IL-6
# Assay: Inhibition of IL-6 in LPS-stimulated THP-1 human monocyte cells (HTRF)
# Format: cell-based
# Settings: for EC50: IL-6 inhibition, LPS-stimulated THP-1 cells, HTRF; for inhibition at 10 µM: THP-1, printed beside >10 μM EC50, top concentration 10 μM, meaning not given, read-out: percentage in parentheses after EC50 >10
# Procedure, shortened: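 THP-1 cells serum-reduced (1% FBS, 24 h), then 5000 cells/well preincubated 2 h with compound (10-point 1:3 series from 10 μM, 0.1% DMSO) before 500 ng/mL LPS for 22 h at 37 °C. Secreted IL-6 quantified by HTRF 665/620 ratio; DMSO-normalised duplicates fitted to four-parameter EC50; above 10 μM, % inhibition at 10 μM given.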
SMILES,EC50 [µM],inhibition at 10 µM [%]
"CN(C)Cc1cncc(-c2ccc3[nH]nc(-c4cc5c(-c6ccc(F)cc6)cccc5[nH]4)c3c2)c1 [Compound 41, 1-(5-(3-(4-(4-Fluorophenyl)-1H-indol-2-yl)-1H-indazol-5-yl)pyridin-3-yl)-N,N-dimethylmethanamine]",> 10,22.9
"CCCC(=O)Nc1cncc(-c2ccc3[nH]nc(-c4cc5c(-c6ccncc6)cccc5[nH]4)c3c2)c1 [Compound 129, N-(5-(3-(4-(Pyridin-4-yl)-1H-indol-2-yl)-1H-indazol-5-yl)pyridin-3-yl) butyramide]",> 10,33.4
"c1cc(-c2ccncc2)c2cc(-c3n[nH]c4ccc(-c5ccncc5)cc34)[nH]c2c1 [Compound 130, 5-(Pyridin-4-yl)-3-(4-(pyridin-4-yl)-1H-indol-2-yl)-1H-indazole]",> 10,48.8
"O=C(Nc1cncc(-c2ccc3[nH]nc(-c4cc5c(-c6ccc(F)cc6)cccc5[nH]4)c3c2)c1)c1ccccc1 [Compound 39, N-(5-(3-(4-(4-Fluorophenyl)-1H-indol-2-yl)-1H-indazol-5-yl)pyridin-3-yl) benzamide]",> 10,48.3
"Fc1ccc(-c2cccc3[nH]c(-c4n[nH]c5ccc(C6=CCNCC6)cc45)cc23)cc1 [Compound 550, 3-(4-(4-Fluorophenyl)-1H-indol-2-yl)-5-(1,2,3,6-tetrahydropyridin-4-yl)-1H-indazole]",> 10,33.7
"O=C(Nc1cncc(-c2ccc3[nH]nc(-c4cc5ccccc5[nH]4)c3c2)c1)c1ccccc1 [Compound 263, N-(5-(3-(1H-Indol-2-yl)-1H-indazol-5-yl)pyridin-3-yl)benzamide]",> 10,0
"CCC(=O)Nc1cncc(-c2ccc3[nH]nc(-c4cc5c(-c6cccc(F)c6)cccc5[nH]4)c3c2)c1 [Compound 1, N-(5-(3-(4-(3-Fluorophenyl)-1H-indol-2-yl)-1H-indazol-5-yl)pyridin-3-yl) propionamide]",4.57,
"CC(C)(C)CC(=O)Nc1cncc(-c2ccc3[nH]nc(-c4cc5c(-c6ccc(F)cc6)cccc5[nH]4)c3c2)c1 [Compound 44, N-(5-(3-(4-(4-Fluorophenyl)-1H-indol-2-yl)-1H-indazol-5-yl)pyridin-3-yl)-3,3-dimethylbutanamide]",> 10,47.9
"O=C(Cc1ccccc1)Nc1cncc(-c2ccc3[nH]nc(-c4cc5c(-c6ccncc6)cccc5[nH]4)c3c2)c1 [Compound 122, 2-Phenyl-N-(5-(3-(4-(pyridin-4-yl)-1H-indol-2-yl)-1H-indazol-5-yl)pyridin-3-yl)acetamide]",> 10,29.6
"CCCCC(=O)Nc1cncc(-c2ccc3[nH]nc(-c4cc5c(-c6ccccn6)cccc5[nH]4)c3c2)c1 [Compound 159, N-(5-(3-(4-(Pyridin-2-yl)-1H-indol-2-yl)-1H-indazol-5-yl)pyridin-3-yl) pentanamide]",> 10,39.3
"Fc1cccc(-c2cccc3[nH]c(-c4n[nH]c5ccc(-c6cccnc6)cc45)cc23)c1 [Compound 4, 3-(4-(3-Fluorophenyl)-1H-indol-2-yl)-5-(pyridin-3-yl)-1H-indazole]",0.058,
"CCC(=O)Nc1cncc(-c2ccc3[nH]nc(-c4cc5ccccc5[nH]4)c3c2)c1 [Compound 253, N-(5-(3-(1H-Indol-2-yl)-1H-indazol-5-yl)pyridin-3-yl)propionamide]",0.233,
"O=C(Nc1cncc(-c2ccc3[nH]nc(-c4cc5c(-c6ccccc6F)cccc5[nH]4)c3c2)c1)C1CCCC1 [Compound 78, N-(5-(3-(4-(2-Fluorophenyl)-1H-indol-2-yl)-1H-indazol-5-yl)pyridin-3-yl) cyclopentanecarboxamide]",> 10,54.1
"c1ccc(-c2cccc3[nH]c(-c4n[nH]c5ccc(-c6ccncc6)cc45)cc23)nc1 [Compound 158, 3-(4-(Pyridin-2-yl)-1H-indol-2-yl)-5-(pyridin-4-yl)-1H-indazole]",1.58,
"Cc1ccncc1-c1ccc2[nH]nc(-c3cc4c(-c5ccccn5)cccc4[nH]3)c2c1 [Compound 145, 5-(4-Methylpyridin-3-yl)-3-(4-(pyridin-2-yl)-1H-indol-2-yl)-1H-indazole]",4.84,
"CCNCc1cncc(-c2ccc3[nH]nc(-c4cc5c(-c6ccccc6F)cccc5[nH]4)c3c2)c1 [Compound 62, N-((5-(3-(4-(2-Fluorophenyl)-1H-indol-2-yl)-1H-indazol-5-yl)pyridin-3-yl)methyl)ethanamine]",9.93,
"CC(C)(C)CC(=O)Nc1cncc(-c2ccc3[nH]nc(-c4cc5c(-c6ccccc6F)cccc5[nH]4)c3c2)c1 [Compound 72, N-(5-(3-(4-(2-Fluorophenyl)-1H-indol-2-yl)-1H-indazol-5-yl)pyridin-3-yl)-3,3-dimethylbutanamide]",> 10,35.3
"Fc1ccc(-c2cccc3[nH]c(-c4n[nH]c5ccc(-c6cncnc6)cc45)cc23)cc1 [Compound 55, 3-(4-(4-Fluorophenyl)-1H-indol-2-yl)-5-(pyrimidin-5-yl)-1H-indazole]",0.488,
"CCCC(=O)Nc1cncc(-c2ccc3[nH]nc(-c4cc5c(-c6cccc(F)c6)cccc5[nH]4)c3c2)c1 [Compound 17, N-(5-(3-(4-(3-Fluorophenyl)-1H-indol-2-yl)-1H-indazol-5-yl)pyridin-3-yl) butyramide]",> 10,24.7
"O=C(Nc1cncc(-c2ccc3[nH]nc(-c4cc5c(-c6ccncc6)cccc5[nH]4)c3c2)c1)C1CCCCC1 [Compound 135, N-(5-(3-(4-(Pyridin-4-yl)-1H-indol-2-yl)-1H-indazol-5-yl)pyridin-3-yl) cyclohexanecarboxamide]",9.9,
"CC(C)(C)C(=O)Nc1cncc(-c2ccc3[nH]nc(-c4cc5c(-c6ccc(F)cc6)cccc5[nH]4)c3c2)c1 [Compound 36, N-(5-(3-(4-(4-Fluorophenyl)-1H-indol-2-yl)-1H-indazol-5-yl)pyridin-3-yl) pivalamide]",0.277,

# Continued, in another order:
EC50 [µM],SMILES,inhibition at 10 µM [%]
0.018,"c1cncc(-c2ccc3[nH]nc(-c4cc5c(-c6cccs6)cccc5[nH]4)c3c2)c1 [Compound 340, 5-(Pyridin-3-yl)-3-(4-(thiophen-2-yl)-1H-indol-2-yl)-1H-indazole]",
0.097,"c1cnc2cc(-c3n[nH]c4ccc(-c5cncc(CN6CCCCC6)c5)cc34)[nH]c2c1 [Compound 519, 5-(5-(Piperidin-1-ylmethyl)pyridin-3-yl)-3-(1H-pyrrolo[3,2-b]pyridin-2-yl)-1H-indazole]",
> 10,"c1cc(N2CCCCC2)c2cc(-c3n[nH]c4ccc(-c5cncc(OC6CCCCC6)c5)cc34)[nH]c2c1 [Compound 635, 5-(5-(Cyclohexyloxy)pyridin-3-yl)-3-(4-(piperidin-1-yl)-1H-indol-2-yl)-1H-indazole]",22.6
> 10,"CC(C)(C)C(=O)Nc1cncc(-c2ccc3[nH]nc(-c4cc5c(-c6cc(F)cc(CNS(C)(=O)=O)c6)cccc5[nH]4)c3c2)c1 [Compound 484, N-(5-(3-(4-(3-Fluoro-5-(methylsulfonamidomethyl)phenyl)-1H-indol-2-yl)-1H-indazol-5-yl)pyridin-3-yl)pivalamide]",24.2
2.8,"Fc1cccc(-c2cccc3[nH]c(-c4n[nH]c5ccc(C6CCNCC6)cc45)cc23)c1 [Compound 533, 3-(4-(3-Fluorophenyl)-1H-indol-2-yl)-5-(piperidin-4-yl)-1H-indazole]",
0.15,"c1csc(-c2cccc3[nH]c(-c4n[nH]c5ccc(-c6ccncc6)cc45)cc23)c1 [Compound 354, 5-(pyridin-4-yl)-3-(4-(thiophen-2-yl)-1H-indol-2-yl)-1H-indazole]",
2.33,"CS(=O)(=O)NCc1cc(F)cc(-c2cccc3[nH]c(-c4n[nH]c5ccc(-c6ccncc6)cc45)cc23)c1 [Compound 494, N-(3-Fluoro-5-(2-(5-(pyridin-4-yl)-1H-indazol-3-yl)-1H-indol-4-yl)benzyl) methane sulfonamide]",
> 10,"O=C(Nc1cncc(-c2ccc3[nH]nc(-c4cc5ccccc5[nH]4)c3c2)c1)C1CCCCC1 [Compound 275, N-(5-(3-(1H-Indol-2-yl)-1H-indazol-5-yl)pyridin-3-yl) cyclohexanecarboxamide]",32.5
0.27,"O=C(Nc1cncc(-c2ccc3[nH]nc(-c4cc5ncccc5[nH]4)c3c2)c1)c1ccccc1 [Compound 515, N-(5-(3-(1H-Pyrrolo[3,2-b]pyridin-2-yl)-1H-indazol-5-yl)pyridin-3-yl) benzamide]",
0.977,"CC(C)CC(=O)Nc1cncc(-c2ccc3[nH]nc(-c4cc5c(-c6ccsc6)cccc5[nH]4)c3c2)c1 [Compound 282, 3-Methyl-N-(5-(3-(4-(thiophen-3-yl)-1H-indol-2-yl)-1H-indazol-5-yl)pyridin-3-yl)butanamide]",
4.17,"Cc1ncc(-c2ccc3[nH]nc(-c4cc5c(-c6ccncc6)cccc5[nH]4)c3c2)n1C [Compound 601, 5-(1,2-Dimethyl-1H-imidazol-5-yl)-3-(4-(pyridin-4-yl)-1H-indol-2-yl)-1H-indazole]",
0.09,"c1ccc(-c2ccc3[nH]nc(-c4cc5c(-c6ccoc6)cccc5[nH]4)c3c2)nc1 [Compound 336, 3-(4-(Furan-3-yl)-1H-indol-2-yl)-5-(pyridin-2-yl)-1H-indazole]",
> 10,"CC(C)C(=O)Nc1cncc(-c2ccc3[nH]nc(-c4cc5c(-c6ccsc6)cccc5[nH]4)c3c2)c1 [Compound 289, N-(5-(3-(4-(Thiophen-3-yl)-1H-indol-2-yl)-1H-indazol-5-yl)pyridin-3-yl) isobutyramide]",48.3
> 10,"CN1CCN(c2cccc3[nH]c(-c4n[nH]c5ccc(-c6cncc(NC(=O)CC7CCNCC7)c6)cc45)cc23)CC1 [Compound 669, N-(5-(3-(4-(4-Methylpiperazin-1-yl)-1H-indol-2-yl)-1H-indazol-5-yl)pyridin-3-yl)-2-(piperidin-4-yl)acetamide]",25.3
